For five compounds, EC50 and IC50 results are on record in patent US20240246960A1 (adMare Therapeutics Society, priority 2021, published 2024).

Where two headings read alike, the source gives them in different places.

The target of assay [1] is T1, pDNA-PK ser2056 induction in HCT116 spheroids (Homo sapiens, UniProt P78527).
T1 construct: endogenous in cells; host or cells: HCT116 multicellular tumour spheroids
The assay can be described thus: Multicellular tumour spheroid + radiation, pDNA-PK inhibition, HCT116. It is filed as cell-based. The following applies: 20 Gy. The gist of the method: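 EC50 (μM) is concentration halving radiation-induced pDNA-PK ser2056, scored by fluorescent immunostaining of cryosections 2 h after 20 Gy. HCT116 tumour spheroids (~0.5 mm, stirred, 20% O2/5% CO2, 37 °C) exposed to serial dilutions from 10 or 5 μM to 3.5 nM starting 1 h before irradiation.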

The target of assay [2] is T2, DNA-PK phosphorylation at Serine 2056 (Homo sapiens, UniProt P78527).
T2 construct: host or cells: FaDu
The assay can be described thus: Cellular Assay for Inhibition of DNA-PK Phosphorylation at Serine 2056 (FaDu cells, neocarzinostatin, sandwich ELISA). The conditions noted are these: Table 1. The format is cell-based. The gist of the method: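 Readout was pSer2056 and total DNA-PK, measured by sandwich ELISA on protein-normalized lysates. Prior to lysis, compound was applied to FaDu cells for 1 h (0.3% DMSO), followed by 2 h of 1 μg/mL neocarzinostatin. IC50 values were fitted from log concentration versus % inhibition normalized to DMSO and NCS controls.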

[3] abbreviates: Example 7, spheroid, cell line HCT115 [sic], 20% O2, read-out: EC50 (pDNA-PK inhibition, immunohistochemical endpoint).
[4] abbreviates: Example 9 Study 2, 20% O2, read-out: Spheroid Cell line: HCT116 Immunohistochemical endpoint pDNA-PK inhibition EC50.

Turning to `Cc1nc(N[C@H]2CC[C@@H](Oc3nc(N4CCOCC4)cc4ncccc34)CC2)c2occc2n1` [Compound 81, 2-methyl-N-((1s,4s)-4-((7-morpholino-1,6-naphthyridin-5-yl)oxy)cyclohexyl)furo[3,2-d]pyrimidin-4-amine], the EC50 in assay [1] (setting [3]) and in assay [1] (setting [4]) was 500 to 1000 nM in each case. The compound further gave an IC50 in assay [2] of 100 to 1000 nM.
As for `FC(F)c1ccnc2cc(N3CCOCC3)nc(O[C@H]3CC[C@@H](Nc4ncccn4)CC3)c12` [Compound 22, N-((1s,4s)-4-((4-(Difluoromethyl)-7-morpholino-1,6-naphthyridin-5-yl)oxy)cyclohexyl)pyrimidin-2-amine], the EC50 in assay [1] (setting [3]) and in assay [1] (setting [4]) was 500 to 1000 nM each time. For the same compound, the IC50 in assay [2] was < 100 nM.
As for `FC(F)(F)c1cnc(N[C@H]2CC[C@@H](Oc3nc(N4CCOCC4)cc4ncccc34)CC2)nc1` [Compound 34, N-((1s,4s)-4-((7-Morpholino-1,6-naphthyridin-5-yl)oxy)cyclohexyl)-5-(trifluoromethyl)pyrimidin-2-amine], the 50% effective concentration (EC50) in assay [1] (setting [3]) is 1000 to 10000 nM; in assay [1] (Example 8, spheroid, read-out: Cell line: HCT116 Immunohistochemical endpoint pDNA-PK inhibition EC50), 1000 to 10000 nM; in assay [1] (setting [4]), 1000 to 10000 nM. In assay [2], this compound gave an IC50 of 100 to 1000 nM.
For the compound `O=C(N[C@H]1CC[C@@H](Oc2nc(N3CCOCC3)cc3ncccc23)CC1)c1ncco1` [Compound 142, N-((1s,4s)-4-((7-morpholino-1,6-naphthyridin-5-yl)oxy)cyclohexyl)oxazole-2-carboxamide], the EC50 in assay [1] (setting [3]) and in assay [1] (setting [4]) was 1000 to 10000 nM each time. Moreover, the IC50 in assay [2] was < 100 nM.
For the compound `O=C(N[C@H]1CC[C@@H](Oc2nc(N3CCOCC3)cc3ncccc23)CC1)c1cccnc1` [Compound 115, N-((1s,4s)-4-((7-morpholino-1,6-naphthyridin-5-yl)oxy)cyclohexyl)nicotinamide], the EC50 in assay [1] (setting [3]) and in assay [1] (setting [4]) was 1000 to 10000 nM in each case. Also, the IC50 in assay [2] is < 100 nM.

The term EC50 denotes the midpoint of the concentration-response curve. A word on the IC50: it is the concentration needed to halve the response being measured. The low end stands for greater potency, the high end for weaker potency.
